Source: patent publication US12559529B2, “NPY2 receptor agonists” (Boehringer Ingelheim International GmbH, priority 2019, dated 2026)

Target: T1, Human Neuropeptide Y2 Receptor (Homo sapiens, UniProt P49146)
T1 construct: purchased CHEMICON HTS066M
T1 sequence (P49146 1-381): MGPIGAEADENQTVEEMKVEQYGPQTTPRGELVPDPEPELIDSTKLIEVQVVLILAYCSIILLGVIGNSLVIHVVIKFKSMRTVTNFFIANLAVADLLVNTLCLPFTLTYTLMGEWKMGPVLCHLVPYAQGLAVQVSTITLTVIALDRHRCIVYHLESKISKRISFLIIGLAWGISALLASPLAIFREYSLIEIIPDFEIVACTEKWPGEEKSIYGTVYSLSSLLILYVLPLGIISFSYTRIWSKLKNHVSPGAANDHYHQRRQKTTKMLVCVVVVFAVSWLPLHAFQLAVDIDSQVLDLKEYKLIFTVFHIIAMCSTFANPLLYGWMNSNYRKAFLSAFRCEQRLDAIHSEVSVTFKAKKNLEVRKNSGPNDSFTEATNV
Test: Radioligand binding competition assay (RLB)
Conditions: Table 3; human 125I-PYY (1-36) 0.02 nM, Y2 receptor membranes; read-out: Ki
Outline: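 Membranes (0.5 μg/well) and test peptides, serially diluted from 1 mM DMSO stocks, were incubated 2 hours at room temperature in HEPES buffer pH 7.4 with Mg, Ca and ovalbumin.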

Row | Ki [nM] | SMILES
1 | 4.85 | CC(C)CC(=O)N[C@@H](C)C(=O)N1CCC[C@H]1C(=O)N[C@@H](CCC(=O)O)C(=O)N[C@@H](CCCCNC(=O)COCCOCCNC(=O)COCCOCCNC(=O)CC[C@H](NC(=O)CCCCCCCCCCCCCCCCC(=O)O)C(=O)O)C(=O)N1CCC[C@H]1C(=O)N[C@@H](CCC(=O)O)C(=O)N[C@@H](CCC(=O)O)C(=O)N[C@@H](CC(=O)O)C(=O)N[C@@H](C)C(=O)N[C@@H](CO)C(=O)N1CCC[C@H]1C(=O)N[C@@H](CCC(=O)O)C(=O)N[C@@H](CCC(=O)O)C(=O)N[C@H](C(=O)N[C@@H](CCC(N)=O)C(=O)N[C@@H](CCCNC(=N)N)C(=O)N[C@@H](Cc1ccc(O)cc1)C(=O)N[C@@H](CCC(=O)O)C(=O)N[C@H](C(=O)N[C@@H](CO)C(=O)N[C@@H](CC(C)C)C(=O)N[C@@H](CCCNC(=N)N)C(=O)N[C@@H](Cc1c[nH]cn1)C(=O)N[C@@H](Cc1ccc(O)cc1)C(=O)N[C@@H](Cc1ccc(O)cc1)C(=O)N[C@@H](CC(N)=O)C(=O)N[C@@H](Cc1c[nH]c2ccccc12)C(=O)N[C@@H](CC(C)C)C(=O)N[C@H](C(=O)N[C@@H](CCCNC(=N)N)C(=O)N[C@@H](CCC(N)=O)C(=O)N[C@@H](CCCNC(=N)N)C(=O)N[C@@H](Cc1ccc(O)cc1)C(N)=O)[C@@H](C)O)C(C)C)[C@@H](C)O [Compound 37, N{alpha-4}-(3-methylbutanoyl)-N{epsilon-7}-[2-(2-{2-[2-(2-{2-[(4S)-4-carboxy-4-(17-carboxyheptadecanamido)butanamido]ethoxy}ethoxy)acetamido]ethoxy}ethoxy)acetamido]-[4A,7K,9E,17T,18Q,21E,22V,28Y,30W,31L]hPYY (4-36)]
2 | 1.21 | CC(C)CC(=O)N[C@@H](C)C(=O)N1CCC[C@H]1C(=O)N[C@@H](CCC(=O)O)C(=O)N[C@@H](CCCCNC(=O)COCCOCCNC(=O)COCCOCCNC(=O)CC[C@H](NC(=O)CCCCCCCCCCCCCCCCC(=O)O)C(=O)O)C(=O)N1CCC[C@H]1C(=O)N[C@@H](CCC(=O)O)C(=O)N[C@@H](CCC(=O)O)C(=O)N[C@@H](CC(=O)O)C(=O)N[C@@H](C)C(=O)N[C@H](C(=O)N1CCC[C@H]1C(=O)N[C@@H](CCC(=O)O)C(=O)N[C@@H](CCC(=O)O)C(=O)N[C@H](C(=O)N[C@@H](CCC(N)=O)C(=O)N[C@@H](CCCNC(=N)N)C(=O)N[C@@H](Cc1ccc(O)cc1)C(=O)N[C@@H](Cc1ccc(O)cc1)C(=O)N[C@H](C(=O)N[C@@H](CO)C(=O)N[C@@H](CC(C)C)C(=O)N[C@@H](CCCNC(=N)N)C(=O)N[C@@H](Cc1c[nH]cn1)C(=O)N[C@@H](Cc1ccc(O)cc1)C(=O)N[C@@H](Cc1ccc(O)cc1)C(=O)N[C@@H](CC(N)=O)C(=O)N[C@@H](Cc1c[nH]c2ccccc12)C(=O)N[C@@H](CC(C)C)C(=O)N[C@H](C(=O)N[C@@H](CCCNC(=N)N)C(=O)N[C@@H](CCC(N)=O)C(=O)N[C@@H](CCCNC(=N)N)C(=O)N[C@@H](Cc1ccc(O)cc1)C(N)=O)[C@@H](C)O)C(C)C)[C@@H](C)O)[C@@H](C)O [Compound 40, N{alpha-4}-(3-methylbutanoyl)-N{epsilon-7}-[2-(2-{2-[2-(2-{2-[(4S)-4-carboxy-4-(17-carboxyheptadecanamido)butanamido]ethoxy}ethoxy)acetamido]ethoxy}ethoxy)acetamido]-[4A,7K,9E,13T,17T,18Q,22V,28Y,30W,31L]hPYY (4-36)]
